This is an account of results in patent US7485647B2, “2-aminoquinoline derivatives” (Banyu Pharmaceutical Co., Ltd., priority 2003, dated 2009).

The target of the test is T1, human MCH-1R (Homo sapiens, UniProt Q99705).
T1 construct: expressed in transfected cells; host or cells: CHO-K1 (American Type Culture Collection)
T1 sequence (Q99705 whole entry): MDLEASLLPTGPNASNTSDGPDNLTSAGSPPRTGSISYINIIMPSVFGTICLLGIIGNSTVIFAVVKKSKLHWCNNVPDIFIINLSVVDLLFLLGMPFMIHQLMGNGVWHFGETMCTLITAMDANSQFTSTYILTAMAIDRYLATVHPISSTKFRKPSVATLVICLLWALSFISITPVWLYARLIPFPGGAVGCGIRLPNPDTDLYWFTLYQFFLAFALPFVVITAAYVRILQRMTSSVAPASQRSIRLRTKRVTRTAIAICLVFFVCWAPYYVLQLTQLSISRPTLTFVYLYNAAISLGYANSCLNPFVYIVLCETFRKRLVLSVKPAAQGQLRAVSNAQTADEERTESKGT
The experiment in a line: MCH binding inhibition test. The following applies: membranes of MCH-1R expressing CHO-K1 cells, 50 pM [125I]MCH, 25° C., one hour; read-out: IC50 (50% inhibition concentration to specific [125I]MCH binding). The procedure:
A human MCH-1R encoding cDNA sequence [FEBS Letters, Vol. 398, p. 253 (1996); Biochimica et Biophisica Acta, Vol. 1401, p. 216 (1998)] was cloned to plasmid vector pEF/mic/cyto (Invitrogen Corporation). The obtained expression vector was transfected to a host cell CHO-K1 (American Type Culture Collection) using lipofectamine plus reagent (Life Technology Inc.) to provide MCH-1R expression cells.
Membrane samples prepared from the MCH-1R expression cells were incubated with each test compound and 50 pM of [^125I]MCH (NEN Co.), in an assay buffer (50 mM Tris buffer comprising 10 mM magnesium chloride, 2 mM ethylenediamine tetraacetate, 0.01% bacitracin and 0.2% bovine serum albumin; pH 7.4) at 25° C. for an hour, followed by filtration through Glass Filter GF/C (Wattman Co.). After washing the glass filter with 50 mM Tris buffer (pH7.4) comprising 10 mM magnesium chloride, 2 mM ethylenediamine tetraacetate and 0.04% Tween-20, radio activity on the glass filter was measured. Non-specific binding was measured in the presence of 1 μM human MCH and 50% inhibition concentration (IC50 value) of each test compound to specific [^125I] MCH binding was determined.
Take `CN1C(=O)CCC12CCN(c1ccc3cc(NC(=O)c4ncc(-c5ccc(F)cc5)cn4)ccc3n1)C2` (stereo not drawn) [Example 1, 5-(4-Fluorophenyl)-N-[2-(1-methyl-2-oxo-1,7-diazaspiro[4,4]-nonan-7-yl)-6-quinolinyl]-2-pyrimidinecarboxamide]: the IC50 came to 8 nM.
The value for `CC(C)C(=O)N(C)[C@@H]1CCN(c2ccc3cc(NC(=O)c4ncc(-c5ccccc5)cn4)ccc3n2)C1` [Example 3, N-(2-[(3R)-3-[isobutyryl(methyl)amino]-1-pyrrolidinyl]-6-quinolinyl)-5-phenyl-2-pyrimidinecarboxamide] was 4.1 nM; that for `CN(C)C(=O)N(C)[C@@H]1CCN(c2ccc3cc(NC(=O)c4ncc(-c5ccccc5)cn4)ccc3n2)C1` [Example 9, N-(2-[(3R)-3-[[(dimethylamino)carbonyl](methyl)amino]-1-pyrrolidinyl]-6-quinolinyl)-5-phenyl-2-pyrimidinecarboxamide] was 3.7 nM.
